# Test results reported in patent US20210341371A1, “CELL SCANNING TECHNOLOGIES AND METHODS OF USE THEREOF” (priority 2018, published 2021).
# Like-named read-outs stand apart in the source and are kept apart here.
# Columns and labels:
# [1] = system: RBC membrane permeability; format: cell-based, human
# Text: The present disclosure also provides technologies for assessing (e.g., identifying and/or characterizing) agents and/or other compositions that modulate RBC membrane permeability (collectively, “RBC Permeability Modulating Agents”). Provided technologies may be useful for identifying RBC Permeability Modulating Agents. In some instances, a RBC Permeability Modulating Agent is expected to effect the health state of a subject exposed it (e.g., a beneficial or adverse effect). For example, provided methods allow for the evaluation of agents and/or compositions intended for use in humans (e.g., a drug candidate or prosthetic material).
# In some embodiments, a sample is analyzed within a particular time period after being subjected to an agent or composition (e.g., within about 5 minutes, about 10 minutes, about 30 minutes, about 1 hour, about 2 hours, or about 5 hours). In some embodiments, a method further comprises evaluating dose response of an agent or composition (e.g., by subjecting each of a plurality of samples to varying concentrations of agent or composition).
# (§1) A sample of whole blood from a healthy volunteer was drawn into ACD anticoagulant. The unwashed sample was divided into aliquots and was analyzed using the Prior Shine Technology and/or the Provided Cell Scanning Technologies. The following outputs were obtained from the sample:
# “Pk0” coincided with the minimum absolute osmotic pressure (e.g., most hypotonic pressure) to which a cell can be subjected without loss of integrity. Pk0 can be identified by determining the right-most extent of the intact cell population in the cell-by-cell graph, i.e., the point of osmolality immediately preceding the point at which the cells ruptured. In FIG. 1a, this minimum pressure is the “peak” 106. […]
# Using the technologies described herein, a cell-by-cell analysis was converted into a plot of percent change of cell volume vs. osmolality (“Cell Scan Plot”) by converting the individual peak voltage into a cell volume, then calculating a mean volume for each 100 cells, and plotting the means to generate the Cell Scan Plot. The percentage change of cell volume at each osmolality is calculated and compared to the mean cell volume of an isotonic cell (e.g., FIG. 1b). […]
# The Fluid Flux Curve (FFC) was determined by taking the first order derivative (with respect to osmolality) of Cell Scan Plot (FIG. 1c). […]
# Using the technologies provided herein, agents were tested for potential adverse in vivo effects prior to use in humans and/or animals. For example, a blood sample from a healthy volunteer was contacted with amphotericin B (0.5 μg/mL) and was analyzed using the provided cell scanning technologies. […]
# [2] = system: RBC membrane permeability; test: Cell scan of blood samples from patients/subjects (RBC membrane permeability parameters), including effect of medication taken; format: in vivo, human; conditions: for effect of medication on the output of the cell scanning technologies: medication the subject has taken or is taking
# Text: The present disclosure encompasses the recognition that one or more medications that the subject has taken or is taking may affect the output of the cell scanning technologies described herein. The effect of a particular medication on the output of the cell scanning technologies may vary by medication, e.g., vary in magnitude and/or in length of effect, and in some cases, a particular medication may have no effect at all. […] Accordingly, in some embodiments, provided methods further comprise determining whether or not the subject has taken or is taking a particular medication. In some embodiments, if the subject has taken a medication known to have a particular effect on the output of the cell scanning technologies, then a determined RBC membrane permeability parameter should be compared to a suitable reference control parameter (e.g., a reference control parameter determined in the presence or absence of the particular medication). In some embodiments, if the subject has taken a medication known to have a particular effect on the output of the cell scanning technologies, then further diagnostic assessment is warranted.
# as §1
# “Pk0” coincided with the minimum absolute osmotic pressure (e.g., most hypotonic pressure) to which a cell can be subjected without loss of integrity. Pk0 can be identified by determining the right-most extent of the intact cell population in the cell-by-cell graph, i.e., the point of osmolality immediately preceding the point at which the cells ruptured. In FIG. 1a, this minimum pressure is the “peak” 106. As the osmolality of the surrounding solution was reduced, the red blood cell ruptures and forms a ghost cell, which releases its contents into the surrounding medium.
# Using the technologies described herein, a cell-by-cell analysis was converted into a plot of percent change of cell volume vs. osmolality (“Cell Scan Plot”) by converting the individual peak voltage into a cell volume, then calculating a mean volume for each 100 cells, and plotting the means to generate the Cell Scan Plot. The percentage change of cell volume at each osmolality is calculated and compared to the mean cell volume of an isotonic cell (e.g., FIG. 1b). On such a plot, Pk0 (see 101) is the osmotic pressure at which the net water flow is zero (i.e., when a cell achieved its maximum volume, i.e., when it is a perfect sphere). As described herein, in some embodiments, Pk0 can be used as an indicator of an individual's health status.
# The Fluid Flux Curve (FFC) was determined by taking the first order derivative (with respect to osmolality) of Cell Scan Plot (FIG. 1c). In an FFC, Pk0 occurred at the zero crossing (101), which was where the slope of the Cell Scan Plot changes from positive to negative. A positive value on the FFC represented a net flow of fluid into the cell, while negative rates represented a net flow of fluid out of the cell. In the FFC, the positive peak 102 and negative peak 103 corresponded to the maximum and minimum, respectively, on the FFC. As used herein, “Pymax” is the magnitude of fluid flux at the maximum, and “Pymin” is the magnitude of fluid flux at the minimum.
# Table 7 is organized by indication and reports the mean values for various parameters tested.
# A person was tested using cell scanning technologies described herein at a check-up 2 months after being diagnosed with grand mal epilepsy. The results were within normal limits (as they were on a prior visit), except for the Pk0 which had shifted approx. 10 mOsm/kg to 136 mOsm/kg. Such a change may be attributed to their prescribed medication, phenytoin.
structure (smiles),measurement,setting,value
OCCS [beta-mercaptoethanol],effect of HgCl2 on RBC membrane permeability after addition of chelator,[1],the effect was reversed and RBC membrane permeability was restored
[Cl][Hg][Cl] [HgCl2],flow of water across the membrane,[1]; unwashed whole blood from a healthy volunteer treated with 65 μM HgCl2,no flow of water across the membrane was detected
same,RBC membrane permeability,"[1]; unwashed whole blood from a healthy volunteer treated with 65 μM HgCl2, monitored over time",essentially eliminated
CC(=O)CC(c1ccccc1)c1c(O)c2ccccc2oc1=O (stereo not drawn) [warfarin],P0 (TOTAL),"[2]; mean value for patients with pulmonary embolus on warfarin, all patients (N=4)",149.4
same,P0 (died),"[2]; mean value for patients with pulmonary embolus on warfarin, subset who died (N=1)",157
CCC1(c2ccccc2)C(=O)NC(=O)NC1=O [phenobarbitone],effect of medication on the output of the cell scanning technologies,[2],have an effect on the output
CC(C)(S)[C@@H](N)C(=O)O [penicillamine],effect of medication on the output of the cell scanning technologies,[2],have an effect on the output
C[C@@H]1[C@H](O)[C@@H](C)/C=C/C=C/C=C/C=C/C=C/C=C/C=C/[C@H](O[C@@H]2O[C@H](C)[C@@H](O)[C@H](N)[C@@H]2O)C[C@@H]2O[C@](O)(C[C@@H](O)C[C@@H](O)[C@H](O)CC[C@@H](O)C[C@@H](O)CC(=O)O[C@H]1C)C[C@H](O)[C@H]2C(=O)O [amphotericin B],Pk0,"[1]; blood sample from a healthy volunteer contacted with amphotericin B 0.5 μg/mL, normal Pk0 approx. 142 mOsm/kg",85 mOsm/kg
same,effect of medication on the output of the cell scanning technologies,[2],have an effect on the output
O=C1NC(=O)C(c2ccccc2)(c2ccccc2)N1 [phenytoin],shift of Pk0 versus prior visit,"[2]; Patient X on prescribed phenytoin, change may be attributed to the medication",approx. 10 mOsm/kg
same,Pk0,"[2]; Patient X, person with grand mal epilepsy, 2 months after diagnosis, on prescribed phenytoin, change may be attributed to the medication",136 mOsm/kg
same,effect of medication on the output of the cell scanning technologies,[2],have an effect on the output
